In ChEMBL document CHEMBL1201862, “PubChem BioAssay data set” (2004):
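Interpolation was linear, between the two tested concentrations surrounding the appropriate level; five concentrations were tested over 48 hours in 96-well plates. GI50: concentration for 50% inhibition of growth.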 Activity calls are given as the source filed them. Cut-off read from the data, not from the text of the source: active = GI50 up to about 1.1 µM and inactive = higher.

Legend:
Assay in all cases: DTP human tumour cell line panel, 48 h
[1] = system: T47D
[2] = system: HT-29
[3] = system: TK-10
[4] = system: LOX IMVI
[5] = system: UACC-257
[6] = system: K562
[7] = system: OVCAR-8
[8] = system: CCRF-CEM
[9] = system: ACHN
[10] = system: SN12C
[11] = system: SK-OV-3
[12] = system: SR
[13] = system: MOLT-4
[14] = system: HL-60
[15] = system: OVCAR-4
[16] = system: 786-0
[17] = system: SW-620
[18] = system: DMS-273
[19] = system: LXFL 529

Compound	GI50 [1]	GI50 [2]	GI50 [3]	GI50 [4]	GI50 [5]	GI50 [6]	GI50 [7]	GI50 [8]	GI50 [9]	GI50 [10]	GI50 [11]	GI50 [12]	GI50 [13]	GI50 [14]	GI50 [15]	GI50 [16]	GI50 [17]	GI50 [18]	GI50 [19]
COC(=O)C1C(O)C(C)C(O)C(C)C=C(C)C2=C3C(=C(C)C(=O)c4c(O)c(c(C)c(OC(C)=O)c43)NC(=O)C(C)=C/C=C\C(C)C(O)C(C)C1O)OCO2 (stereo not drawn)	31 µM (inactive)	27.7 µM (inactive)	56.1 µM (inactive)	17.1 µM (inactive)	13.4 µM (inactive)	18.6 µM (inactive)	27.7 µM (inactive)	23.6 µM (inactive)	27 µM (inactive)	37.4 µM (inactive)	> 100 µM (inactive)	19.7 µM (inactive)	15.6 µM (inactive)	17.8 µM (inactive)	25.3 µM (inactive)	57.1 µM (inactive)	23.9 µM (inactive)	–	–
CCOC(=O)CN(Cn1cncn1)Cn1cncn1	–	34.6 µM (inactive)	50.7 µM (inactive)	21 µM (inactive)	17.6 µM (inactive)	40.6 µM (inactive)	24.7 µM (inactive)	47 µM (inactive)	36.6 µM (inactive)	29.4 µM (inactive)	> 100 µM (inactive)	–	45.4 µM (inactive)	35.7 µM (inactive)	46.8 µM (inactive)	58.6 µM (inactive)	24.1 µM (inactive)	20.5 µM (inactive)	40.2 µM (inactive)
COc1cccc2ccc(C(=O)c3ccccc3)nc12	–	–	> 100 µM (inactive)	> 100 µM (inactive)	–	> 100 µM (inactive)	> 100 µM (inactive)	79.4 µM (inactive)	> 100 µM (inactive)	> 100 µM (inactive)	–	> 100 µM (inactive)	> 100 µM (inactive)	–	> 100 µM (inactive)	> 100 µM (inactive)	> 100 µM (inactive)	> 100 µM (inactive)	77.8 µM (inactive)
CN(C)CCCC12CCCCC1=Nc1ccccc12 (stereo not drawn)	> 100 µM (inactive)	> 100 µM (inactive)	> 100 µM (inactive)	> 100 µM (inactive)	> 100 µM (inactive)	74 µM (inactive)	> 100 µM (inactive)	76.6 µM (inactive)	> 100 µM (inactive)	> 100 µM (inactive)	> 100 µM (inactive)	22.5 µM (inactive)	> 100 µM (inactive)	26.1 µM (inactive)	> 100 µM (inactive)	> 100 µM (inactive)	> 100 µM (inactive)	–	–
CC(=O)NC(CCC(=O)C=[N+]=[N-])C(=O)O (stereo not drawn)	> 100 µM (inactive)	> 100 µM (inactive)	> 100 µM (inactive)	> 100 µM (inactive)	> 100 µM (inactive)	> 100 µM (inactive)	> 100 µM (inactive)	> 100 µM (inactive)	> 100 µM (inactive)	> 100 µM (inactive)	> 100 µM (inactive)	> 100 µM (inactive)	> 100 µM (inactive)	> 100 µM (inactive)	> 100 µM (inactive)	> 100 µM (inactive)	> 100 µM (inactive)	–	–
C/C(=N\Nc1nc2ccccc2o1)c1ccncn1	0.0845 µM (active)	0.0356 µM (active)	1.12 µM (active)	0.124 µM (active)	0.396 µM (active)	0.0514 µM (active)	0.0929 µM (active)	0.0481 µM (active)	0.0638 µM (active)	0.225 µM (active)	0.294 µM (active)	0.0647 µM (active)	0.0305 µM (active)	0.0218 µM (active)	0.129 µM (active)	0.0869 µM (active)	0.0455 µM (active)	–	–
N#C[BH2-][n+]1cn(C2CC(OP(=O)(O)OCC3OC(n4cnc5c(N)ncnc54)CC3O)C(CO)O2)c2nc(N)[nH]c(=O)c21 (stereo not drawn)	> 100 µM (inactive)	> 100 µM (inactive)	> 100 µM (inactive)	> 100 µM (inactive)	> 100 µM (inactive)	> 100 µM (inactive)	> 100 µM (inactive)	> 100 µM (inactive)	> 100 µM (inactive)	> 100 µM (inactive)	> 100 µM (inactive)	> 100 µM (inactive)	> 100 µM (inactive)	> 100 µM (inactive)	> 100 µM (inactive)	> 100 µM (inactive)	> 100 µM (inactive)	–	–
COc1ccc(C(=O)c2sc(Nc3ccc(Cl)cc3)nc2N)cc1	37.6 µM (inactive)	4.43 µM (inactive)	10.1 µM (inactive)	9.42 µM (inactive)	11.9 µM (inactive)	3.82 µM (inactive)	25.9 µM (inactive)	2.52 µM (inactive)	25.4 µM (inactive)	21.6 µM (inactive)	6.35 µM (inactive)	1.93 µM (inactive)	4.04 µM (inactive)	0.473 µM (active)	12.6 µM (inactive)	7.8 µM (inactive)	5.71 µM (inactive)	–	–
